The values that follow come from PMC6691401 (Journal of Medicinal Chemistry, 2019).

Where two headings read alike, the source gives them in different places.

The target in series [1] is T1, Mab TrmD (Mycobacteroides abscessus, UniProt B1MDI3). As to the kind of experiment: Differential scanning fluorimetry (DSF) thermal shift. It is filed as binding. Particulars: 5 mM ligand. On the technique in general: In DSF a fluorescence change marks the thermal transition of the protein.
For series [2], the target named is T1, Mab TrmD. Conditions: ligand efficiency, previously reported, cited from earlier work.
Series [3] concerns the target T1, Mab TrmD. More on the design: method as in PMID 32602532. Particulars: cited from earlier work; for ΔTm: Table 3, 5 mM ligand and 10 μM Mab TrmD; for thermal shift (ΔTm): 5 mM ligand.
Series [4] has as its target T1, Mab TrmD. As to the kind of experiment: Native mass spectrometry of ligand binding. Particulars: 20 μM Mab TrmD, 100 μM ligand, 5% DMSO. The method, then:
Native nanoelectrospray ionization mass spectrometry spectra were recorded on a Synapt HDMS mass spectrometer (Waters, Manchester, UK) modified for studying high masses. Mab TrmD was exchanged into 200 mM ammonium acetate (pH 7.0) solution using Micro Bio-Spin 6 chromatography columns (Bio-Rad, UK). Protein samples were equilibrated at room temperature in the absence or presence of the indicated concentrations of ligands for at least 15 min before analysis. Protein solution (2.5 μL) was injected into a gold-coated borosilicate emitter (Thermo Scientific, UK) for sampling. Typical conditions were capillary voltage 1.5 kV, cone voltage 50 V, trap collision voltage 20 V, transfer collision voltage 20 V, source temperature 20 °C, backing pressure 3–4 mbar, trap pressure 3–4 × 10^–2 mbar, IM (N2) pressure 5–6 × 10^–1 mbar and TOF pressure 7–8 × 10^–7 mbar. All mass spectra were calibrated externally with caesium iodide (10 mg/mL). Data acquisition and processing were performed using MassLynx 4.1 (Waters).

The target in series [5] is T1, Mab TrmD. As to the kind of experiment: Isothermal titration calorimetry (ITC). It is filed as binding. Conditions: for GE (R^1): group efficiency of R^1; for LE: ligand efficiency; for GE: group efficiency of the added group; for GE (CH2R^1): group efficiency of CH2R^1.
Series [6] deals with the molecule itself. As to the kind of experiment: native MS; nanoelectrospray, Mab TrmD exchanged into 200 mM ammonium acetate pH 7.0, room temperature, protein alone (dimer also seen with 5% DMSO and with ligands).

As a reminder, the ΔTm is the change in melting temperature against a reference sample. `CCNC(=O)c1cn[nH]c1` [Compound 2, N-Ethyl-1H-pyrazole-4-carboxamide]: the ΔTm on Mab TrmD [1] is below 0.5 °C.

Take `COc1ccc(-c2cc(N)[nH]n2)cc1` [Compound 16, 5-(4-methoxyphenyl)-1H-pyrazol-3-amine]: the LE at Mab TrmD [2] (Table 3) and on Mab TrmD [2] was 0.37 kcal mol^–1 per heavy atom each time. Further, the ΔTm result at Mab TrmD [3] is “+3.0 °C”.

For the molecule `Nc1cc(-c2ccccc2)n[nH]1` [Compound 17, 5-phenyl-1H-pyrazol-3-amine], at Mab TrmD [3], the “thermal shift (ΔTm)” value is 1.4–1.5 °C and the ΔTm result was “+1.5 °C”.

Turning to `Cc1ccc(-c2cc(N)[nH]n2)cc1` [Compound 18, 5-(p-tolyl)-1H-pyrazol-3-amine], on Mab TrmD [3], the “thermal shift (ΔTm)” value is 1.4–1.5 °C and the ΔTm entry was “+1.4 °C”.

As for `COc1cccc(-c2cc(N)n[nH]2)c1` [Compound 19, 5-(3-Methoxyphenyl)-1H-pyrazol-3-amine], the “thermal shift (ΔTm)” value on Mab TrmD [1] is “negative thermal shift”.

As to `OB(O)c1ccc2cc[nH]c2c1` [Compound 20, (1H-indol-6-yl)boronic acid], the LE on Mab TrmD [2] (Table 3) and on Mab TrmD [2] was 0.41 kcal mol^–1 per heavy atom in each case. For the same molecule, on Mab TrmD [3], the thermal shift (ΔTm) entry was “+4.0 °C”.

On to `O=C(O)c1ccc2cc[nH]c2c1` [Compound 21, 1H-indole-6-carboxylic acid], for which, on Mab TrmD [3], the “thermal shift (ΔTm)” value is “no ΔTm observed” and the shift in melting temperature (ΔTm) entry was “–0.6 °C”.

Take `Nc1cc(-c2ccc3cc[nH]c3c2)[nH]n1` [Compound 23, 5-(1H-Indol-6-yl)-1H-pyrazol-3-amine]: the LE on Mab TrmD [2] (Table 3) and at Mab TrmD [2] was 0.36 kcal mol^–1 per heavy atom in each case.

Regarding `Nc1cc(-c2ccc3ccn(Cc4ccccc4)c3c2)[nH]n1` [Compound 24c, 5-(1-Benzyl-1H-indol-6-yl)-1H-pyrazol-3-amine], at Mab TrmD [4], the “binding to Mab TrmD dimer observed by native MS” value is listed as “entirely doubly bound”. At Mab TrmD [5] (Table 4), the “GE (R^1)” value is 0.15 kcal mol^–1 per heavy atom and the LE is recorded as 0.29 kcal mol^–1 per heavy atom. In addition, on Mab TrmD [5], the GE is on record as 0.15 kcal mol^–1 per heavy atom and the LE is listed as 0.29 kcal mol^–1 per heavy atom.

Turning to `Nc1cc(-c2ccc3ccn(Cc4ccccn4)c3c2)[nH]n1` [Compound 24f, 5-(1-(Pyridin-2-ylmethyl)-1H-indol-6-yl)-1H-pyrazol-3-amine], the “GE (R^1)” value on Mab TrmD [5] (Table 4) is 0.18 kcal mol^–1 per heavy atom. The LE at Mab TrmD [2] (Table 4) and on Mab TrmD [2] was 0.30 kcal mol^–1 per heavy atom each time.

On to `N#Cc1c(N)n[nH]c1-c1ccc2ccn(Cc3ccccn3)c2c1` [Compound 26f, 3-Amino-5-(1-(pyridin-2-ylmethyl)-1H-indol-6-yl)-1H-pyrazole-4-carbonitrile], for which the “GE (R^1)” value on Mab TrmD [5] (Table 4) is 0.20 kcal mol^–1 per heavy atom. In addition, on Mab TrmD [5], the GE was 0.95 kcal mol^–1 per heavy atom. For the same molecule, the LE on Mab TrmD [2] (Table 4) and on Mab TrmD [2] was 0.36 kcal mol^–1 per heavy atom each time.

With `N#Cc1c(N)n[nH]c1-c1ccc2ccn(Cc3ccc(CN4CCCC4)cn3)c2c1` [Compound 28, 3-Amino-5-(1-((5-(pyrrolidin-1-ylmethyl)pyridin-2-yl)methyl)-1H-indol-6-yl)-1H-pyrazole-4-carbonitrile], on Mab TrmD [5] (Table 6), the “GE (CH2R^1)” value is given as 0.17 kcal mol^–1 per heavy atom. The LE on Mab TrmD [2] (Table 6) and at Mab TrmD [2] was 0.32 kcal mol^–1 per heavy atom throughout.

As for `N#Cc1c(N)n[nH]c1-c1ccc2ccn(Cc3ccc(CN4CCCC4)cc3)c2c1` [Compound 29a, 3-Amino-5-(1-(4-(pyrrolidin-1-ylmethyl)benzyl)-1H-indol-6-yl)-1H-pyrazole-4-carbonitrile], the “binding to Mab TrmD dimer observed by native MS” value on Mab TrmD [4] is “low gas-phase stabilities”. The LE at Mab TrmD [2] (Table 6) and at Mab TrmD [2] was 0.34 kcal mol^–1 per heavy atom throughout.

One may read the Kd as the constant that tells how readily two partners part at equilibrium. Higher therefore signals lower affinity. For `N#Cc1c(N)n[nH]c1-c1ccc2ccn(Cc3ccc(CN4CCOCC4)cc3)c2c1` [Compound 29c, 3-Amino-5-(1-(4-(morpholinomethyl)benzyl)-1H-indol-6-yl)-1H-pyrazole-4-carbonitrile], the Kd on Mab TrmD [5] (Table 6) was 190 ± 23 nM. Moreover, the LE on Mab TrmD [5] (Table 6) and on Mab TrmD [5] was 0.30 kcal mol^–1 per heavy atom in each case.

As to `CN1CCN(Cc2ccc(Cn3ccc4ccc(-c5[nH]nc(N)c5C#N)cc43)cc2)CC1` [Compound 29d, 3-Amino-5-(1-(4-((4-methylpiperazin-1-yl)methyl)benzyl)-1H-indol-6-yl)-1H-pyrazole-4-carbonitrile], the LE at Mab TrmD [2] (Table 6) and on Mab TrmD [2] was 0.30 kcal mol^–1 per heavy atom in each case.

Take `CC(C)N1CCN(Cc2ccc(Cn3ccc4ccc(-c5[nH]nc(N)c5C#N)cc43)cc2)CC1` [Compound 29e, 3-Amino-5-(1-(4-((4-isopropylpiperazin-1-yl)methyl)benzyl)-1H-indol-6-yl)-1H-pyrazole-4-carbonitrile]: on Mab TrmD [5] (Table 6), the affinity, expressed as Kd, was 100 ± 24 nM and the LE was 0.28 kcal mol^–1 per heavy atom. Moreover, the LE at Mab TrmD [5] is on record as 0.28 kcal mol^–1 per heavy atom.

For `Cc1c(N)n[nH]c1-c1ccc2ccn(Cc3ccc(CN4CCCC4)cc3)c2c1` [Compound 30a, 4-Methyl-5-(1-(4-(pyrrolidin-1-ylmethyl)benzyl)-1H-indol-6-yl)-1H-pyrazol-3-amine], on Mab TrmD [5] (Table 6), binding was characterised by a dissociation constant (Kd) of 2000 ± 310 nM and the LE is reported as 0.27 kcal mol^–1 per heavy atom.

Take `Nc1cc(-c2ccc3ccn(Cc4ccc(CN5CCCC5)cc4)c3c2)[nH]n1` [Compound 31a, 5-(1-(4-(Pyrrolidin-1-ylmethyl)benzyl)-1H-indol-6-yl)-1H-pyrazol-3-amine]: the “GE (CH2R^1)” value on Mab TrmD [5] (Table 6) is recorded as 0.36 kcal mol^–1 per heavy atom. Besides, the LE on Mab TrmD [2] (Table 6) is 0.31 kcal mol^–1 per heavy atom.

Regarding `Nc1cc(-c2ccc3ccn(Cc4ccc(CN5CCCCC5)cc4)c3c2)[nH]n1` [Compound 31b, 5-(1-(4-(Piperidin-1-ylmethyl)benzyl)-1H-indol-6-yl)-1H-pyrazol-3-amine], on Mab TrmD [5] (Table 6), the Kd amounted to 710 ± 90 nM, the “GE (CH2R^1)” value is 0.28 kcal mol^–1 per heavy atom and the LE is listed as 0.29 kcal mol^–1 per heavy atom.

B1: Mycobacterium abscessus tRNA (m1G37) methyltransferase (TrmD) (enzyme, UniProt B1MDI3 1-242, looked up)
chain: MKIDVVTIFPEYLQPVRQSLPGKAIDAGLVDVAVHDLRRWTHDVHKSVDDSPYGGGPGMVMKPTVWGDALDEICTSETLLVVPTPAGYPFTQETAWQWSTEDHLVIACGRYEGIDQRVADDAATRMRVREVSIGDYVLNGGEAAALVIIEAVLRLVPGVLGNALSAQEDSHSEGMASLLEGPSYTRPPSWRGMDVPPVLLSGDHAKIAAWRAEQSRQRTIERRPDLLGFDSPTGEHGGDGLS
Usually stoichiometry N stands for the number of molecules, sites or subunits per partner or assembly. For the molecule B1, the “stoichiometry N” value in series [6] worked out at 2.
